Measured values taken from patent US9428452B2, “Compounds” (Glaxo Group Limited, priority 2012, dated 2016).
Marks after values point to notes of the source that are not given here.

How the values were obtained:
IL-17A mRNA expression = experiment: Ex-vivo human skin model, IL-17A mRNA expression; format: cell-based; conditions: for Percentage of inhibition of IL-17A mRNA expression: Th17 cytokine cocktail 24 h, RT-PCR
Description: (§1) Fresh ex vivo human skin from healthy bariatric patients, that underwent abdominoplasty skin removal, was de-fatted and dermatomed at 750 μm. Dermatomed skin was incubated twice for 5-10 minutes at room temperature in PBS containing a antibiotic/antimycotic solution: Fungizone (Invitrogen #15290018), PSG (Fisher #BW17718R) and Gentamicin (Invitrogen #15750060). Skin was treated aseptically from this point on. Individual skin samples were obtained by 10 mm punch biopsy and placed in a 0.4 μm PCF membrane transwell (Millicell #PIHP01250) containing 30 μl of a 64% bovine collagen solution. After a 30 minute incubation at 37° C., which allows the collagen solution time to set, skin samples on transwells were transferred to 6-well plates (1 sample per well) and the lower chamber filled with 1 ml complete media (Cornification Media)+hydrocortisone (final concentration of 0.4 μg/ml) with or without test compounds at 10 μM (day −3) and allowed to rest overnight (16-18 h) at 37° C. Next, media was aspirated from the lower chamber, replaced with 1 ml complete media without hydrocortisone and incubated at 37° C. for 1 h. This constituted a ‘wash’ step. Following the hydrocortisone washout, media was again aspirated from the lower chamber and replaced with 1.0 ml complete media without hydrocortisone with or without GSK compounds at 10 μM (day −2). Cultures were incubated at 37° C. in a humidified chamber and media was refreshed one more day (day-1). The following day (day-0), cultures were stimulated for 24 h with a freshly made Th17 cytokine cocktail (CD3, 1 μg/ml, CD28, 2 μg/ml, IL-1b, 10 ng/ml, IL-6, 5 ng/ml, TGFb, 1 ng/ml, IL-21, 10 ng/ml, anti-IL-4, 1 μg/ml and anti-INFg, 1 μg/ml) with or without test compounds at 10 μM. Upon harvest (day +1), skin samples were minced with a razor blade and transferred to 1.5 ml RNAse-free tubes with 1 ml RNAlater solution until later analysis by RT-PCR (stored at −80 C).
(§2) Total RNA was isolated from about 30-40 mg of tissue using Qiagen's (Cat #74106) Mini RNA Isolation kit. Briefly, tissue was homogenized in the Precellys-24 machine using 300 μL of RLT buffer supplemented with 1% 2-Beta-Mercapto-Ethanol at 6300 rpm for 30 seconds for 6 cycles with a 2-minute ice break. 600 μL of water containing Proteinase K was added to the homogenate and digested at 55 C for 15 minutes. Digested tissue was spun down for 3 minutes at 10,000×g and the supernantant was used for RNA isolation using Qiagen's RNeasy mini columns according to manufacturer's protocol. 100 ng of RNA was used as template in a 20 μL PCR volume using Applied Biosciences RNA-to-CT 1 Step kit (AB Catalog #4392938) as well as the specific TaqMan probe for each gene to be quantified. Life Technologies FAM labeled Probes Catalog Numbers are as follows: ACTb=Hs01060665_g1, IL-17A=Hs00174383_m1, IL-17F=Hs00369400_m1, IL-22=Hs01574154_m1. All probes used (except for ACTb) expand an Exon. Applied Biosciences' Master Mix has a ROX dye internal control. OneStepPlus PCR machine was used for both the RT step and the 40 amplification cycles. RNA levels of gene of interest's relative expression were calculated using the Delta Delta CT formula.
(§3) First delta: Normalized to ACTb gene expression
(§4) Second delta: Normalized to sample 13 (Day 0+DMSO) for the gene of interest.

IL-17F mRNA expression = experiment: Ex-vivo human skin model, IL-17F mRNA expression; format: cell-based; conditions: for Percentage of inhibition of IL-17F mRNA expression: Th17 cytokine cocktail 24 h, RT-PCR
Description: as §1, §2, §3, §4

[1] = biological target: T1, Human RORγ Ligand Binding Domain (RORγ-LBD) (Homo sapiens, UniProt P51449); experiment: Dual Fluorescence Energy Transfer (FRET) assay: co-activator SRC1(2) peptide interaction with RORγ-LBD; format: biochemical; conditions: RORγ-LBD / SRC1(2) peptide, read-out: mean pIC50 (converted)
T1 construct: His6 with thrombin site) (N); made in house; host or cells: E. coli BL21(DE3), modified pET21a vector
T1 sequence (P51449 263-518): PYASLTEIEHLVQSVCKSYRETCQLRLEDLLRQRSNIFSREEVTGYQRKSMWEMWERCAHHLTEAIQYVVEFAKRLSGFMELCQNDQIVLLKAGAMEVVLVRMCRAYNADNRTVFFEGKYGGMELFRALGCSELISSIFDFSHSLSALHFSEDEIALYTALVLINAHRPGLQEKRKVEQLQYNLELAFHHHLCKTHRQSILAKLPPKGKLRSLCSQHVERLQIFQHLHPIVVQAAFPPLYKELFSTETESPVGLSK
Text: Dual Fluorescence Energy Transfer (FRET) Assay
This assay is based on the knowledge that nuclear receptors interact with cofactors (transcription factors) in a ligand dependent manner. RORγ is a typical nuclear receptor in that it has an AF2 domain in the ligand binding domain (LBD) which interacts with co-activators.
This assay measures ligand-mediated interaction of the co-activator peptide with the purified bacterial-expressed RORγ ligand binding domain (RORγ-LBD) to indirectly assess ligand binding. RORγ has a basal level of interaction with the co-activator SRC1(2) in the absence of ligand, thus, it is possible to find ligands that inhibit or enhance the RORγ/SRC1(2) interaction.
Human RORγ Ligand Binding Domain (RORγ-LBD) was expressed in E. coli strain BL21(DE3) as an amino-terminal polyhistidine tagged fusion protein. DNA encoding this recombinant protein was sub-cloned into a modified pET21a expression vector (Novagen).
Approximately 50 g E. coli cell pellet was resuspended in 300 mL of lysis buffer (30 mM imidazole pH 7.0 and 150 mM NaCl). Cells were lysed by sonication and cell debris was removed by centrifugation for 30 minutes at 20,000 g at 4° C. […] The clarified lysate was loaded onto a column (XK-26) packed with ProBond Nickel Chelating resin (InVitrogen), pre-equilibrated with 30 mM imidazole pH 7.0 and 150 mM NaCl. After washing to baseline absorbance with the equilibration buffer, the column was developed with a gradient from 30 to 500 mM imidazole pH 7.0. Column fractions containing the RORγ-LBD protein were pooled and concentrated to a volume of 5 mLs. The concentrated protein was loaded onto a Superdex 200 column pre-equilibrated with 20 mM Tris-Cl pH 7.2 and 200 mM NaCl. The fractions containing the desired RORγ-LBD protein were pooled together.
Purified RORγ-LBD was buffer exchanged by exhaustive dialysis [3 changes of at least 20 volumes (>8000×)] against PBS [100 mM NaPhosphate, pH 8 and 150 mM NaCl]. […] The modified RORγ-LBD was dialyzed against 2 buffer changes—TBS pH 8.0 containing 5 mM DTT, 2 mM EDTA and 2% sucrose—each at least 20 times of the volume. The modified protein was distributed into aliquots, frozen on dry ice and stored at −80° C. The biotinylated RORγ-LBD was subjected to mass spectrometric analysis to reveal the extent of modification by the biotinylation reagent.
Biotinylated SRC1(2) solution was prepared by adding an appropriate amount of biotinylated SRC1(2) from the 100 uM stock solution to a buffer containing 10 mM of freshly added DTT from solid to give a final concentration of 40 nM. An appropriate amount of Europium labeled Streptavidin was then added to the biotinylated SRC1(2) solution in a tube to give a final concentration of 10 nM. The tube was inverted gently and incubated for 15 minutes at room temperature. Twenty-fold excess biotin from the 10 mM stock solution was added and the tube was inverted gently and incubated for 10 minutes at room temperature.
Biotinylated RORγ-LBD solution was prepared by adding an appropriate amount of biotinylated RORγ-LBD from the stock solution to a buffer containing 10 mM of freshly added DTT from solid to give a final concentration of 40 nM. An appropriate amount of APC labeled Streptavidin was then added to the biotinylated RORγ-LBD solution in a tube to give a final concentration of 20 nM. The tube was inverted gently and incubated for 15 minutes at room temperature. Twenty-fold excess biotin from the 10 mM stock solution was then added and the tube was inverted gently and incubated for 10 minutes at room temperature.
The reaction mixtures were incubated for 5 minutes. […] The plates were incubated for 1 hour and then read on ViewLux in Lance mode for EU/APC.

IL-22 mRNA expression = experiment: Ex-vivo human skin model, IL-22 mRNA expression; format: cell-based; conditions: for Percentage of inhibition of IL-22 mRNA expression: Th17 cytokine cocktail 24 h, RT-PCR
Description: as §1, §2, §3, §4

[2] = four different donors, compound 10 μM

In the case of `CCc1ccc(N(CC(C)C)S(=O)(=O)c2ccc([C@H](O)CN3CCOCC3)c(CO)c2)cc1` [Example E125, N-(4-ethylphenyl)-4-(1-hydroxy-2-morpholinoethyl)-3-(hydroxymethyl)-N-isobutylbenzenesulfonamide], the “Percentage of inhibition of IL-17A mRNA expression” value (IL-17A mRNA expression; Skin Donor 1, compound 10 μM) is reported as 65% *, the “Percentage of inhibition of IL-17A mRNA expression” value (IL-17A mRNA expression; Skin Donor 2, compound 10 μM) is reported as 92% * and the “Percentage of inhibition of IL-17A mRNA expression” value (IL-17A mRNA expression; Skin Donor 3, compound 10 μM) is reported as 65% *. For the same compound, the “Percentage of inhibition of IL-17A mRNA expression” value (IL-17A mRNA expression; Skin Donor 4, compound 10 μM) was 93% *, the “gene transcription of il17a (result in words)” value (IL-17A mRNA expression; [2]) was “inhibited” and the “Percentage of inhibition of IL-17F mRNA expression” value (IL-17F mRNA expression; Skin Donor 1, compound 10 μM) was 39%. The “Percentage of inhibition of IL-17F mRNA expression” value (IL-17F mRNA expression; Skin Donor 2, compound 10 μM) was 89% *, the “Percentage of inhibition of IL-17F mRNA expression” value (IL-17F mRNA expression; Skin Donor 3, compound 10 μM) was 45% and the “Percentage of inhibition of IL-17F mRNA expression” value (IL-17F mRNA expression; Skin Donor 4, compound 10 μM) was 80% *. The “gene transcription of il17f (result in words)” value (IL-17F mRNA expression; [2]) was “inhibited”, the IC50 [1] was 31.6 nM and the “Percentage of inhibition of IL-22 mRNA expression” value (IL-22 mRNA expression; Skin Donor 1, compound 10 μM) was 52% *. For the same compound, the “Percentage of inhibition of IL-22 mRNA expression” value (IL-22 mRNA expression; Skin Donor 2, compound 10 μM) was 52%, the “Percentage of inhibition of IL-22 mRNA expression” value (IL-22 mRNA expression; Skin Donor 3, compound 10 μM) was 20% and the “Percentage of inhibition of IL-22 mRNA expression” value (IL-22 mRNA expression; Skin Donor 4, compound 10 μM) was 70% *. For the same compound, the “gene transcription of il22 (result in words)” value (IL-22 mRNA expression; [2]) was “inhibited”.
